According to patent publication US6730685B1, “Formulation of substituted benzimidazoles” (AstraZeneca AB, priority 1999, dated 2004):
Converted amounts (≈) assume the structure as drawn.

Test: Solubility of omeprazole and omeprazole sodium in water, dichloromethane and polyethylene glycol 400
Type: physicochemical
Protocol: The solubility of omeprazole (the non-ionised species) has been determined to approximately 0.1 g/l in water and approximately 100 g/l in dichloromethane at room temperature (22° C.). […] Omeprazole sodium is ionised and is therefore much more soluble in water compared with omeprazole and the opposite is applicable in the less polar solvent dichloromethane. The solubility of omeprazole (the non-ionised species) has been determined to approximately 20 g/l in polyethylene glycol 400. This means that the solubility is much better in polyethylene glycol, a less polar solvent, than in water. […] This means that the solubility in polyethylene glycol is much higher for omeprazole sodium than for omeprazole. The high solubility of omeprazole sodium in polyethylene glycol is very favourable regarding the formulation aspects of a parenteral pharmaceutical product.

SMILES | Solubility in dichloromethane (result in words) | Solubility in polyethylene glycol 400 (result in words) | Solubility in water (result in words) | solubility (22 °C, organic solvent or mixture) [mg/mL] | solubility (22 °C, water) [mg/mL] | solubility (organic solvent or mixture) [mg/mL]
COc1ccc2[n-]c([S+]([O-])Cc3ncc(C)c(OC)c3C)nc2c1.[Na+] (stereo not drawn) [Omeprazole sodium] | only slightly soluble | freely soluble | freely soluble | – | – | –
COc1ccc2[nH]c([S+]([O-])Cc3ncc(C)c(OC)c3C)nc2c1 (stereo not drawn) [omeprazole] | – | – | – | ~100 (≈ 289 mM) | ~0.1 (≈ 0.289 mM) | ~20 (≈ 57.9 mM)
